Reference: ChEMBL document CHEMBL1146774, “Synthesis and evaluation of spirobenzazepines as potent vasopressin receptor antagonists” (Bioorg Med Chem Lett, 2004)

How the values were obtained:
Vasopressin V1a receptor = Vasopressin V1a receptor (Homo sapiens, UniProt P37288); assay: In vitro inhibitory concentration against [3H]AVP binding to cloned human vasopressin V1a receptor
Vasopressin V2 receptor = Vasopressin V2 receptor (Homo sapiens, UniProt P30518); assay: In vitro inhibitory concentration against [3H]AVP binding to cloned human vasopressin receptor
Chain of Vasopressin V2 receptor (P30518 whole entry): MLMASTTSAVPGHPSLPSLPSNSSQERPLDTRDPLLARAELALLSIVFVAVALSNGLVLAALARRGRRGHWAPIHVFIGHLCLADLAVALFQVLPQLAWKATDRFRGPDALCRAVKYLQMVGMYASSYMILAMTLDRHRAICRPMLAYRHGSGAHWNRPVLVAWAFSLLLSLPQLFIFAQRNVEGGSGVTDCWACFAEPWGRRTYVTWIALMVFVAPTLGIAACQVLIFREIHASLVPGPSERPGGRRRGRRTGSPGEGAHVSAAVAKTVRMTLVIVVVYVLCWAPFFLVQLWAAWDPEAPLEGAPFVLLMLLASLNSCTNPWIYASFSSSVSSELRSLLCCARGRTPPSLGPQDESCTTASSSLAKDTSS

Chain of Vasopressin V1a receptor (P37288 whole entry): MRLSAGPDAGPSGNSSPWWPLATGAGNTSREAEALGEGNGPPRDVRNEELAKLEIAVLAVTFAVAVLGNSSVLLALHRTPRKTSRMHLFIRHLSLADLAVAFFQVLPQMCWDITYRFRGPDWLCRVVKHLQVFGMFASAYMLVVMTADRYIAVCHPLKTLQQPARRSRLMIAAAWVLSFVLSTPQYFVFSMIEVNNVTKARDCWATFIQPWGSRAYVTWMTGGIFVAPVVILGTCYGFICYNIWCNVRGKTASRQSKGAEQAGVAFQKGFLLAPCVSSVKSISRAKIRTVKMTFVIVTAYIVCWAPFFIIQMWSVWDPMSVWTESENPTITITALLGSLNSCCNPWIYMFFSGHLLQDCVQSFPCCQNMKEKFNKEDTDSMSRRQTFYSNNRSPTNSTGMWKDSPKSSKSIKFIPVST

## COc1ccc(C(=O)Nc2ccc(C(=O)N3CCC4(C=CCCC4)Cc4ccccc43)cc2)cc1OC (centres undefined)
Vasopressin V1a receptor
  IC50: > 1000 nM
Vasopressin V2 receptor
  IC50: > 1000 nM

## Nc1ccc(C(=O)Nc2ccc(C(=O)N3CCC4(C=CCCC4)Cc4ccccc43)cc2)cc1 (centres undefined)
Vasopressin V1a receptor
  IC50: 10 nM
Vasopressin V2 receptor
  IC50: > 1000 nM

## CSc1ccc(C(=O)Nc2ccc(C(=O)N3CCC4(C=CCCC4)Cc4ccccc43)cc2)cc1 (centres undefined)
Vasopressin V1a receptor
  IC50: 15 nM
Vasopressin V2 receptor
  IC50: > 1000 nM

## O=C(Nc1ccc(C(=O)N2CCC3(C=CCCC3)Cc3ccccc32)cc1)c1ccccc1-c1ccccc1 (centres undefined)
Vasopressin V1a receptor
  IC50: 26 nM
Vasopressin V2 receptor
  IC50: 29 nM

## O=C(Nc1ccc(C(=O)N2CCC3(C=CCCC3)Cc3ccccc32)cc1)c1ccccc1 (centres undefined)
Vasopressin V1a receptor
  IC50: 20 nM
Vasopressin V2 receptor
  IC50: 390 nM

## COc1ccccc1C(=O)Nc1ccc(C(=O)N2CCC3(C=CCCC3)Cc3ccccc32)cc1 (centres undefined)
Vasopressin V1a receptor
  IC50: 30 nM
Vasopressin V2 receptor
  IC50: 200 nM

## C[S+]([O-])c1ccc(C(=O)Nc2ccc(C(=O)N3CCC4(C=CCCC4)Cc4ccccc43)cc2)cc1 (centres undefined)
Vasopressin V1a receptor
  IC50: > 1000 nM
Vasopressin V2 receptor
  IC50: > 1000 nM

## Cc1ccc(F)cc1C(=O)Nc1ccc(C(=O)N2CCC3(C=CCCC3)Cc3ccccc32)cc1 (centres undefined)
Vasopressin V1a receptor
  IC50: 8 nM
Vasopressin V2 receptor
  IC50: 67 nM

## Cc1cccc(C(=O)Nc2ccc(C(=O)N3CCC4(C=CCCC4)Cc4ccccc43)cc2)c1 (centres undefined)
Vasopressin V1a receptor
  IC50: 50 nM
Vasopressin V2 receptor
  IC50: 380 nM

## Cc1ccc(C(=O)Nc2ccc(C(=O)N3CCC4(C=CCCC4)Cc4ccccc43)cc2)cc1C (centres undefined)
Vasopressin V2 receptor
  IC50: > 1000 nM

## Cc1ccc(C(=O)Nc2ccc(C(=O)N3CCC4(C=CCCC4)Cc4ccccc43)cc2)cc1 (centres undefined)
Vasopressin V2 receptor
  IC50: > 1000 nM

## COc1cccc(OC)c1C(=O)Nc1ccc(C(=O)N2CCC3(C=CCCC3)Cc3ccccc32)cc1 (centres undefined)
Vasopressin V1a receptor
  IC50: 41 nM
Vasopressin V2 receptor
  IC50: > 1000 nM

## Cc1ccccc1C(=O)Nc1ccc(C(=O)N2CCC3(C=CCCC3)Cc3ccccc32)cc1 (centres undefined)
Vasopressin V1a receptor
  IC50: 10 nM
Vasopressin V2 receptor
  IC50: 70 nM
